Experimental data reported in PubChem BioAssay AID330 (DTP/NCI, 2004).
Several values for one entry are separate records, joined by “and”; a condition that tells them apart may be missing. Equal values may be shown once. Toxic doses and inconclusive results are not listed.

Tested on: P388 leukemia ip, CD2F1 mice, survival T/C
Assay: NCI In Vivo Anticancer Drug Screen. Data for tumor model P388 Leukemia (intraperitoneal) in CD2F1 (CDF1) mice
Conditions: endpoint: median survival time, higher = longer survival
Outline: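 Mice carrying the transplanted tumor received test compound or vehicle. Survival was recorded in each group, and the value is the treated-group measurement divided by that of the vehicle-treated control group.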

[1] = dose: 12.5 mg/kg/injection, schedule: Q01DX005 (ip), vehicle: Klucel (hydroxypropylcellulose) (HPC)
[2] = dose: 25.0 mg/kg/injection, schedule: Q01DX005 (ip), vehicle: Klucel (hydroxypropylcellulose) (HPC)
[3] = dose: 50.0 mg/kg/injection, schedule: Q01DX009 (ip), vehicle: saline with Tween-80
[4] = dose: 100.0 mg/kg/injection, schedule: Q01DX009 (ip), vehicle: saline with Tween-80
[5] = dose: 200.0 mg/kg/injection, schedule: Q01DX009 (ip), vehicle: saline with Tween-80
[6] = dose: 50.0 mg/kg/injection, schedule: Q01DX009 (ip), vehicle: Klucel (hydroxypropylcellulose) (HPC)
[7] = dose: 100.0 mg/kg/injection, schedule: Q01DX009 (ip), vehicle: Klucel (hydroxypropylcellulose) (HPC)
[8] = dose: 50.0 mg/kg/injection, schedule: Q01DX009 (ip), vehicle: saline
[9] = dose: 100.0 mg/kg/injection, schedule: Q01DX009 (ip), vehicle: saline
[10] = dose: 200.0 mg/kg/injection, schedule: Q01DX009 (ip), vehicle: saline
[11] = dose: 400.0 mg/kg/injection, schedule: Q01DX009 (ip), vehicle: saline
[12] = dose: 12.5 mg/kg/injection, schedule: Q01DX009 (ip), vehicle: saline
[13] = dose: 15.0 mg/kg/injection, schedule: Q01DX009 (ip), vehicle: saline with Tween-80
[14] = dose: 30.0 mg/kg/injection, schedule: Q01DX009 (ip), vehicle: saline with Tween-80

COc1nc(COC(=O)NC(C)C)c(COC(=O)NC(C)C)n1C
T/C [1]: 109 % of control
T/C [2]: 118 % of control
T/C (dose: 50.0 mg/kg/injection, schedule: Q01DX005 (ip), vehicle: Klucel (hydroxypropylcellulose) (HPC)): 123 % of control
T/C (dose: 100.0 mg/kg/injection, schedule: Q01DX005 (ip), vehicle: Klucel (hydroxypropylcellulose) (HPC)): 166 % of control
T/C (dose: 200.0 mg/kg/injection, schedule: Q01DX005 (ip), vehicle: Klucel (hydroxypropylcellulose) (HPC)): 189 % of control
T/C (dose: 400.0 mg/kg/injection, schedule: Q01DX005 (ip), vehicle: Klucel (hydroxypropylcellulose) (HPC)): 196 % of control

C#CCOc1ccc(Cl)cc1C(=O)O
T/C [3]: 105 % of control
T/C [4]: 102 % of control
T/C [5]: 97 % of control

CCCCCCCCCCCCCCCCCC(=O)Nc1ncc([N+](=O)[O-])s1
T/C [6]: 106 % of control
T/C [7]: 101 % of control
T/C (dose: 200.0 mg/kg/injection, schedule: Q01DX009 (ip), vehicle: Klucel (hydroxypropylcellulose) (HPC)): 101 % of control

COc1nc(Nc2ccc(/C=C/c3ccc(Nc4nc(OC)nc(N(CCO)CCO)n4)cc3S(=O)(=O)O)c(S(=O)(=O)O)c2)nc(N(CCO)CCO)n1
T/C (dose: 100.0 mg/kg/injection, schedule: Q04DX003 (ip), vehicle: saline): 98 % of control
T/C (dose: 200.0 mg/kg/injection, schedule: Q04DX003 (ip), vehicle: saline): 98 % of control
T/C (dose: 400.0 mg/kg/injection, schedule: Q04DX003 (ip), vehicle: saline): 103 % of control

COc1ccc(C[n+]2ccc3ccccc3c2)cc1
T/C (dose: 15.0 mg/kg/injection, schedule: Q01DX005 (ip), vehicle: saline): 95 % of control
T/C (dose: 30.0 mg/kg/injection, schedule: Q01DX005 (ip), vehicle: saline): 95 % of control
T/C (dose: 60.0 mg/kg/injection, schedule: Q01DX005 (ip), vehicle: saline): 106 % of control and 111 % of control

COc1ccc(/C=C/C(=O)C(CN(C)C)CN(C)C)cc1OC
T/C (dose: 0.78 mg/kg/injection, schedule: Q01DX005 (ip), vehicle: Klucel (hydroxypropylcellulose) (HPC)): 106 % of control
T/C (dose: 1.56 mg/kg/injection, schedule: Q01DX005 (ip), vehicle: Klucel (hydroxypropylcellulose) (HPC)): 102 % of control
T/C (dose: 3.12 mg/kg/injection, schedule: Q01DX005 (ip), vehicle: Klucel (hydroxypropylcellulose) (HPC)): 104 % of control

O=c1cc[nH]cc1
T/C [8]: 100 % of control and 103 % of control
T/C [9]: 103 % of control and 109 % of control
T/C [10]: 101 % of control and 113 % of control
T/C [11]: 111 % of control and 116 % of control
T/C (dose: 600.0 mg/kg/injection, schedule: Q01DX009 (ip), vehicle: saline): 112 % of control and 113 % of control

O=c1[nH]c2c(Cl)c(Cl)c(Cl)c(Cl)c2[nH]c1=O
T/C (dose: 50.0 mg/kg/injection, schedule: Q01DX005 (ip), vehicle: saline with Tween-80): 90 % of control
T/C (dose: 100.0 mg/kg/injection, schedule: Q01DX005 (ip), vehicle: saline with Tween-80): 87 % of control

COC(=O)C(NC(=O)C(NC(=O)c1c2nc3c(C(=O)NC(C(=O)NC(C(=O)OC)C(C)C)C(C)O)ccc(C)c3oc-2c(C)c(=O)c1N)C(C)O)C(C)C (configuration not stated)
T/C (dose: 0.05 mg/kg/injection, schedule: Q01DX009 (ip), vehicle: water): 117 % of control
T/C (dose: 0.1 mg/kg/injection, schedule: Q01DX009 (ip), vehicle: water): 101 % of control
T/C (dose: 0.2 mg/kg/injection, schedule: Q01DX009 (ip), vehicle: water): 99 % of control
T/C (dose: 0.4 mg/kg/injection, schedule: Q01DX009 (ip), vehicle: water): 100 % of control
T/C (dose: 0.8 mg/kg/injection, schedule: Q01DX009 (ip), vehicle: water): 99 % of control
T/C (dose: 1.6 mg/kg/injection, schedule: Q01DX009 (ip), vehicle: water): 102 % of control and 90 % of control
T/C (dose: 3.2 mg/kg/injection, schedule: Q01DX009 (ip), vehicle: water): 92 % of control
T/C (dose: 6.4 mg/kg/injection, schedule: Q01DX009 (ip), vehicle: water): 99 % of control
T/C (dose: 12.8 mg/kg/injection, schedule: Q01DX009 (ip), vehicle: water): 101 % of control

COC(=O)[C@H](C)[C@@H]1CC[C@](C)(CCC2=C(C)CCCC2(C)C)OO1
T/C (dose: 4.38 mg/kg/injection, schedule: Q01DX005 (ip), vehicle: saline + Tween-80 + alcohol): 93 % of control
T/C (dose: 8.75 mg/kg/injection, schedule: Q01DX005 (ip), vehicle: saline + Tween-80 + alcohol): 100 % of control
T/C (dose: 17.5 mg/kg/injection, schedule: Q01DX005 (ip), vehicle: saline + Tween-80 + alcohol): 94 % of control
T/C (dose: 35.0 mg/kg/injection, schedule: Q01DX005 (ip), vehicle: saline + Tween-80 + alcohol): 107 % of control

c1c[n+](CC2CO2)ccc1-c1cc[n+](CC2CO2)cc1 (configuration not stated)
T/C (dose: 25.0 mg/kg/injection, schedule: Q01DX009 (ip), vehicle: Klucel (hydroxypropylcellulose) (HPC)): 120 % of control
T/C (dose: 40.0 mg/kg/injection, schedule: Q01DX009 (ip), vehicle: Klucel (hydroxypropylcellulose) (HPC)): 162 % of control
T/C [6]: 163 % of control
T/C (dose: 80.0 mg/kg/injection, schedule: Q01DX009 (ip), vehicle: Klucel (hydroxypropylcellulose) (HPC)): 159 % of control
T/C [7]: 161 % of control

CC(=O)Nc1cc2nc3ccc(C)cc3oc-2c(C)c1=O
T/C (dose: 0.78 mg/kg/injection, schedule: Q01DX009 (ip), vehicle: other): 113 % of control
T/C (dose: 1.56 mg/kg/injection, schedule: Q01DX009 (ip), vehicle: other): 98 % of control
T/C (dose: 3.13 mg/kg/injection, schedule: Q01DX009 (ip), vehicle: other): 98 % of control
T/C (dose: 6.25 mg/kg/injection, schedule: Q01DX009 (ip), vehicle: other): 103 % of control

c1ccc([P+](NCCN[P+](c2ccccc2)(c2ccccc2)c2ccccc2)(c2ccccc2)c2ccccc2)cc1
T/C (dose: 6.25 mg/kg/injection, schedule: Q01DX009 (ip), vehicle: saline): 97 % of control
T/C [12]: 100 % of control

COc1ccc2oc3c(ccc(=O)n3C)c(=O)c2c1
T/C (dose: 0.69 mg/kg/injection, schedule: Q01DX001 (ip), vehicle: saline with Tween-80): 99 % of control
T/C (dose: 138.0 mg/kg/injection, schedule: Q01DX001 (ip), vehicle: saline with Tween-80): 96 % of control
T/C (dose: 276.0 mg/kg/injection, schedule: Q01DX001 (ip), vehicle: saline with Tween-80): 91 % of control

CCCN(CCC)c1nsc(N)n1
T/C (dose: 7.5 mg/kg/injection, schedule: Q01DX009 (ip), vehicle: saline with Tween-80): 113 % of control
T/C [13]: 113 % of control
T/C [14]: 118 % of control

Cc1cccc(NC(=O)Nc2cccc(S(N)(=O)=O)c2)c1C
T/C [3]: 104 % of control
T/C [4]: 90 % of control
T/C [5]: 90 % of control

CC(C)(C)c1cc(Cc2ccccc2)c(O)c(C(C)(C)C)c1
T/C (dose: 50.0 mg/kg/injection, schedule: Q01DX005 (ip), vehicle: distilled water + alcohol): 100 % of control
T/C (dose: 100.0 mg/kg/injection, schedule: Q01DX005 (ip), vehicle: distilled water + alcohol): 103 % of control
T/C (dose: 200.0 mg/kg/injection, schedule: Q01DX005 (ip), vehicle: distilled water + alcohol): 111 % of control

CN(C)CCCNC(=O)/C=C\C(=O)O
T/C [12]: 107 % of control
T/C (dose: 25.0 mg/kg/injection, schedule: Q01DX009 (ip), vehicle: saline): 100 % of control
T/C [8]: 109 % of control and 93 % of control
T/C [9]: 94 % of control
T/C [10]: 94 % of control
T/C [11]: 97 % of control

CCCCCCCCCCNCCSSc1ccccc1
T/C (dose: 6.25 mg/kg/injection, schedule: Q01DX005 (ip), vehicle: Klucel (hydroxypropylcellulose) (HPC)): 95 % of control
T/C [1]: 100 % of control
T/C [2]: 102 % of control

c1ccc2nc3nc4ccccc4nc3nc2c1
T/C [13]: 92 % of control
T/C [14]: 114 % of control
T/C (dose: 50.0 mg/kg/injection, schedule: Q01DX005 (ip), vehicle: Klucel + Tween-80): 90 % of control
T/C [3]: 103 % of control
T/C (dose: 60.0 mg/kg/injection, schedule: Q01DX009 (ip), vehicle: saline with Tween-80): 111 % of control
T/C (dose: 100.0 mg/kg/injection, schedule: Q01DX005 (ip), vehicle: Klucel + Tween-80): 96 % of control
T/C [4]: 113 % of control
T/C (dose: 200.0 mg/kg/injection, schedule: Q01DX005 (ip), vehicle: Klucel + Tween-80): 93 % of control
T/C [5]: 107 % of control
